Assay results from US12559454B2, “Benzenesulfonamide derivatives and uses thereof” (2692372 Ontario, Inc., priority 2019, dated 2026).
Values joined by “and” are separate entries in the source; they are usually repeats but may differ in a detail not shown here. Identical values can stand only once. Like-named read-outs stand apart in the source and are kept apart here. Each block holds one molecule with its values, some of them ahead of it.

Assays:
[1] = test system: tubulin; test: Tubulin polymerization assay; type: biochemical; details: for % Inhibition: Vmax normalized to tubulin only control; for % D.O.P.: degree of polymerization relative to tubulin control
In short: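 Purified tubulin (3 mg/mL in the polymerization mix) in 80 mM PIPES pH 6.9, 2 mM MgCl2, 0.5 mM EGTA, 1 mM GTP, 10.2% glycerol was added to inhibitor at 37 °C. A340 read every 15 s for 30 min; maximal baseline-subtracted change relative to tubulin-only control gave % degree of polymerization.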

[2] = Intrinsic clearance in mouse hepatocyte; type: in vitro ADME; details: hepatocytes
Protocol: A stock of 100 μM test compound was prepared by diluting the 10 mM test compound in DMSO with a solution of 50% acetonitrile and 50% water. In a 96-well non-coated plate, 198 μL of hepatocytes was pipetted, and the plate was placed in the incubator on an orbital shaker to allow the hepatocytes to warm for 10 minutes. To this solution was added 2 μL of the 100 μM test compound to start the reaction, and the plate was placed on an orbital shaker. […] The reaction solution was then vortexed for 10 minutes and centrifuged at 4,000 rpm for 30 minutes at 4° C. 400 μL of the supernatant was transferred to one new 96-well plate. Centrifuged at 4,000 rpm for 30 minutes at 4° C. Transfer 100 μL of the supernatant to a new 96-well plate ensuring the pellet was not disturbed. Add 100 μL of ultrapure water to all samples for analysis by LC-MS/MS. Bioanalytical method: Column—Phenomenex Synergi 4μ Hydro-PR 80A (2.0×30 mm). Mobile phase—0.1% formic acid in water (solvent A) and 0.1% formic acid in acetonitrile (solvent B). Column temperature—room temperature. Injection volume—10 μL. MS analysis—API 4000 instrument from AB Inc (Canada) with an ESI interface.

[3] = Parallel artificial membrane permeability assay (PAMPA), Example D4; details: for recovery at 16 h, 10 μM: pH 7.4
Protocol: (§2) 1) The stock solutions of positive controls were prepared in DMSO at the concentration of 10 mM. Testosterone and methotrexate were used as control compounds in this assay. 2) Prepare a stock solution of compounds in DMSO at the concentration of 10 mM, and further dilute with PBS (pH 7.4). The final concentration of the test compound is 10 μM.
(§3) Assay Procedures. […] 2)Carefully pipette 5 μL of the lecithin/dodecane mixture into each acceptor plate well (top compartment), avoiding pipette tip contact with the membrane. 3) Immediately after the application of the artificial membrane (within 10 minutes), add 300 μL of PBS (pH 7.4) solution to each well of the acceptor plate. Add 300 μL of drug-containing solutions to each well of the donor plate (bottom compartment) in triplicate. 4) Slowly and carefully place the acceptor plate into the donor plate, making sure the underside of the membrane is in contact with the drug-containing solutions in all wells. 5) Replace the plate lid and incubate at 25° C., 60 rpm for 16 hours. 6) After incubation, aliquots of 50 μL from each well of acceptor and donor plate are transferred into a 96-well plate. Add 200 μL of methanol (containing IS: 100 nM Alprazolam, 200 nM Labetalol and 2 μM Ketoprofen) into each well. 7) Cover with plate lid. Vortex at 750 rpm for 100 seconds. Samples were centrifuged at 3,220 g for 20 minutes. Determine the compound concentrations by LC/MS/MS.

[4] = PAMPA, 16 h, 10 μM, pH 7.4
Protocol: as §2, §3

[5] = biological target: T1, BTK (Homo sapiens, UniProt Q06187); test: In vitro BTK inhibition (no preincubation); type: biochemical; details: Table 17
[6] = biological target: T2, BMX (Homo sapiens, UniProt P51813); test: In vitro kinase inhibition, BMX; type: biochemical
T2 sequence (P51813 1-675): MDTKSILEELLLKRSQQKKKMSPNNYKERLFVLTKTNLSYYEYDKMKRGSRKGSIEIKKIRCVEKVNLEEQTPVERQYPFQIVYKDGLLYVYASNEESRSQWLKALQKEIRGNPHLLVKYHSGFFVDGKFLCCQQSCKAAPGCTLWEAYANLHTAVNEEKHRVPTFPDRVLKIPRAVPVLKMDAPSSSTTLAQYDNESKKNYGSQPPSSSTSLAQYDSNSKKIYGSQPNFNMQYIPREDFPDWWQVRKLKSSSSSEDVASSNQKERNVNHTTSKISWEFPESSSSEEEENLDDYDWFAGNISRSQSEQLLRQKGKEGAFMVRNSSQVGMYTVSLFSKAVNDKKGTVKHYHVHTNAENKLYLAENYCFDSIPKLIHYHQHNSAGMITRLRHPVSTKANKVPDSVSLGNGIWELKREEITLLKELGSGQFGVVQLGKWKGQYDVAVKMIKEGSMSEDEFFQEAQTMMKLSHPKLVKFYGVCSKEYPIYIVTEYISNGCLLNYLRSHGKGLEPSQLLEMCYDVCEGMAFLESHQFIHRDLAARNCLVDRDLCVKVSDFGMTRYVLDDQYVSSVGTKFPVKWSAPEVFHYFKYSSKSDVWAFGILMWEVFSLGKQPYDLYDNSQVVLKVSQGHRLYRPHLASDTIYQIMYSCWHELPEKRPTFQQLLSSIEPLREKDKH

[7] = biological target: T3, NanoLuc-BTK fusion protein (Homo sapiens, UniProt Q06187); test: NanoBRET target engagement assay in HEK 293 cells; type: cell-based; details: tracer K-5, 2 hours
T3 construct: host or cells: HEK 293 cells
Excerpt: Bioluminescence Resonance Energy Transfer (BRET) is used to quantitatively measure the interaction between proteins in live cells. The NanoBRET Target Engagement (TE) Assay ((Promega, Cat #N2500)) measures the apparent binding affinity of test compounds at select kinase proteins by competitive displacement of a fluorescent NanoBRET kinase-ligand tracer (K-5), from a target kinase fused to a NanoLuc luciferase protein within intact cells. To determine whether test compounds can bind BTK, a fixed concentration of NanoBRET tracer is added to cells expressing the NanoLuc-BTK fusion protein, thereby generating a BRET reporter complex. Application of competitive test compounds results in a dose-dependent decrease in NanoBRET™ energy transfer, which allows quantitation of apparent intracellular affinity of the BTK target protein for the test compound.
In order to evaluate the binding between BTK and test compounds, an intracellular drug displacement assay was performed. […] The plates were then analyzed with a Biotek Synergy Neo2 plate reader equipped with NanoBRET 618 filters (donor 450 nm/8 nm BP and acceptor 600 nm LP). […] BRET ratios are expressed as milliBRET units (mBU), where 1 mBU corresponds to the corrected BRET ratio multiplied by 1000.

[8] = biological target: T4, His-tagged BTK kinase domain (Homo sapiens, UniProt Q06187); test: Mass spectral analysis of tryptic digest of BTK kinase domain; type: binding; details: 10 μM BTK KD, 10 μM compound, 45 min; tryptic peptide 467-487
T4 construct: Intact His-tagged BTK kinase domain (SOURCE)(10 μM) was incubated
Protocol: A protein kinase that is inhibited by compound and/or pharmaceutically acceptable salt of the present disclosure may be subjected to mass spectral analysis to assess the formation of permanent, irreversible covalent adducts. […] Such methods identify permanent, irreversible covalent protein adducts by observing a mass peak that corresponds to the mass of a control sample plus the mass of an irreversible adduct.
After the incubation time, the reactions were quenched by acetone precipitation and the pellet was re-dissolved in 8 M Urea. […] The BTK protein band was then excised and subjected to an in-gel trypsin digest by reducing the protein (5 mM DTT), alkylating the thiols with iodoacetamide (15 mM), and then incubating the protein gel band with trypsin in a 37 C water bath (4 hours). The tryptic digestion was then quenched by the addition of trifluoroacetic acid, and peptides were removed from the gel band by sonicating with increasing amounts of acetonitrile (0%, 30%, & 60%). Peptides were then purified using C18 ziptips, spotted on the MALDI target plate with α-cyano-4-hydroxycinnamic acid as the desorption matrix (10 mg/mL in 0.10% TFA:Acetonitrile 50:50), and analyzed in reflectron mode.

[9] = biological target: T1, BTK; test: BTK washout experiment; type: biochemical; details: 6-h incubation, 50 nM BTK, 280 nM compound, 400-fold dilution
Protocol: After a 3-h incubation of 40 nM BTK in the presence of 296 nM of compound I-A1, a 400-fold dilution was performed to remove excess inhibitor.
After a 6-h incubation of 50 nM BTK in the presence of 280 nM of compound 3A-6, a 400-fold dilution was performed to remove excess inhibitor.
By way of contrast, a “washout” experiment performed with ARQ-531 gives a very different result, because this compound lacks a warhead and is known to inhibit BTK reversibly. After a 6-h incubation of 50 nM BTK in the presence of 177 nM of ARQ-531, a 400-fold dilution was performed to remove excess inhibitor. […] This indicates to one of ordinary skill in the art that the enzyme was not inhibited irreversibly during the incubation with ARQ-531.

[10] = biological target: T1, BTK; test: BTK irreversible inhibition, enzyme kinetic analysis; type: biochemical; details: 500 μM ATP
Protocol: One of ordinary skill in the art will recognize that this is consistent with the irreversible inhibition of BTK by compound I-A1.
One of ordinary skill in the art will recognize that this is consistent with the irreversible inhibition of BTK by compound I-A6.
One of ordinary skill in the art will recognize that this is consistent with the irreversible inhibition of BTK by compound 3A-2.
The shift of IC50 to a lower value after pre-incubation of the enzyme indicates to one of ordinary skill in the art that a significant portion of the enzyme was inhibited irreversibly during the incubation period.

[11] = Plasma concentration in Balb/C nude mice
Protocol: IP administration at 40 mg/kg
Bioanalytical assay: Mobile phase: Solvent A=Water (0.1% Formic acid, 5% Acetonitrile), Solvent B=Acetonitrile (0.1% Formic acid, 5% Water), Column: Agilent ZORBAX XDB-Phenyl 5 μm (50×2.10 mm), MS: AB API 5500 LC/MS/MS instrument, HPLC: Shimadzu (DGU-20A5R)
Mouse species: Balb/C nude mice

[12] = test system: K562 cells; test: CellTiter-Blue cell viability, K562; type: cell-based; details: Homo sapiens, 72 hrs exposure
In short: (§1)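 Cells plated at 1×10^4 per well, compound (0.097656-50 μM) added after 24 hrs and exposed 72 hrs at 37° C, 5% CO2. Viability by CellTiter-Blue, 1-4 h incubation, fluorescence at 560/590 nm.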

[13] = Reactivity profiling with glutathione, HPLC method; type: physicochemical; details: IMDM buffer with 10% FBS and 5 mM GSH, 25 μM compound
Protocol: The rate of compound degradation is determined by the integrated area of the analytical peak corresponding to the intact compound (t=0) after each sampling time. The elution time was 13 minutes with the flow rate of 1.2 ml/min. The mobile phase was consisted of phase A and B. Mobile phase A was analytical grade acetonitrile (+0.1% formic acid) and mobile phase B was Milli-Q water (+0.1% formic acid). Each compound was tested in duplicate. The data was processed and analyzed using GraphPad.

[14] = test system: MV4-11 cells; test: CellTiter-Blue cell viability, MV-4-11; type: cell-based; details: Homo sapiens, 72 hrs exposure
In short: as §1

[15] = test system: MOLM-13 cells; test: CellTiter-Blue cell viability, MOLM-13; type: cell-based; details: Homo sapiens, 72 hrs exposure
In short: as §1

T1 sequence (Q06187 whole entry, species assumed): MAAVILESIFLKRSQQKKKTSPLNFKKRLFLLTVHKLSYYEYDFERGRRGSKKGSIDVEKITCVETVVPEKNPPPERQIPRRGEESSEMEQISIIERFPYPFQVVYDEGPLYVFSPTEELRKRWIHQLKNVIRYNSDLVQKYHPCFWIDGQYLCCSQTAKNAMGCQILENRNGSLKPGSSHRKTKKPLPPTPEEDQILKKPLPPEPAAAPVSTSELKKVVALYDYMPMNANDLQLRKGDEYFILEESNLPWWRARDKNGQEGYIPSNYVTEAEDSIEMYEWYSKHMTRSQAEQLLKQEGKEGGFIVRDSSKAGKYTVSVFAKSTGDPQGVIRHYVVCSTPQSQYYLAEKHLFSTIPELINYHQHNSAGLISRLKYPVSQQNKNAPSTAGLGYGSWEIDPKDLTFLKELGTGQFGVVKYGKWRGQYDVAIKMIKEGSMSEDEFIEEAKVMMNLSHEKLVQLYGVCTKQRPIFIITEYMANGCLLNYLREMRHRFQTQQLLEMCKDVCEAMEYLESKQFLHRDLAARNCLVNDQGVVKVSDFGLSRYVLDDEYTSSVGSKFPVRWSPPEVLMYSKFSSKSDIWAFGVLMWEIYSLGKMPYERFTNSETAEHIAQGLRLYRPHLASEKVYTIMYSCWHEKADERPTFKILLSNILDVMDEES
T4 sequence (Q06187 402-655 limits assumed): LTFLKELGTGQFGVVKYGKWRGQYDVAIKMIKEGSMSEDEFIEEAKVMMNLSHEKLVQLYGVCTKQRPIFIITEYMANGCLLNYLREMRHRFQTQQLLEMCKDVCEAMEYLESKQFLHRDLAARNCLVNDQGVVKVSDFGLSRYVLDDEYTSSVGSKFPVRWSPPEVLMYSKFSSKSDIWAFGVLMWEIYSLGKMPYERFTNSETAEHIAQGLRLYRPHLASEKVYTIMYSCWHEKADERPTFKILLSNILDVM
T3 sequence (Q06187 whole entry, the tested form may be a part): as the sequence (Q06187 whole entry, species assumed) above

SMILES: COc1ccc(NS(=O)(=O)c2c(F)c(F)c(F)c(F)c2F)cc1F [Batabulin, batabulin, reference compound]
% Inhibition [1]: C (>20%)
% D.O.P. [1]: B (< 85%)
half-life at 1 μM [2]: ≤ 0.167 h
recovery at 16 h, 10 μM [3]: 67.4%
−Log Pe [4]: 5.00

IC50 [5]: 100 to 1000 nM
IC50 [6]: 10 to 100 nM
SMILES: COc1c(F)c(F)c(F)c(F)c1S(=O)(=O)N1CCC[C@@H](n2nc(-c3ccc(Oc4ccccc4)cc3)c3c(N)ncnc32)C1 [Compound 3A-1, (R)-3-(4-phenoxyphenyl)-1-(1-((2,3,4,5-tetrafluoro-6-methoxyphenyl)sulfonyl)piperidin-3-yl)-1H-pyrazolo[3,4-d]pyrimidin-4-amine]

IC50 [7]: 94 nM
IC50 [5]: 100 to 1000 nM
C481 covalent modification [8]: covalent modification and ✓
inhibition at 0.28 µM ([9]; read-out: enzyme inhibited irreversibly): 87%
remaining activity at 0.28 µM ([9]; relative to DMSO, read-out: residual activity of the enzyme): 13%
IC50 ([10]; no pre-incubation, read-out: IC50 against BTK not pre-incubated): 109 nM
IC50 ([10]; after 3-h incubation of 50 nM BTK with 280 nM compound, read-out: IC50 against pre-incubated BTK): 13.9 nM
SMILES: COc1c(F)c(F)c(F)c(F)c1S(=O)(=O)NCCn1nc(-c2ccc(Oc3ccccc3)cc2)c2c(N)ncnc21 [Compound 3A-6, N-(2-(4-amino-3-(4-phenoxyphenyl)-1H-pyrazolo[3,4-d]pyrimidin-1-yl)ethyl)-2,3,4,5-tetrafluoro-6-methoxybenzenesulfonamide]

Cmax ([11]; Balb/C nude, mouse, ip, 40 mg/kg): < 20 ng/mL and < 50 µM
K (h^−1) ([11]; IP 40 mg/kg, Balb/C nude mice): A (≤5 h^−1)
IC50 [12]: 100 to 1000 nM
half-life at 25 μM [13]: 1.67 to 16.7 h
IC50 [14]: ≤ 100 nM
IC50 [15]: 100 to 1000 nM
half-life at 1 μM [2]: 1.67 to 16.7 h
−Log Pe ([3]; PBS pH 7.4, 10 μM, 16 hours): 5.02
recovery at 16 h, 10 μM [3]: 94.9%
SMILES: COc1ccc(NS(=O)(=O)c2c(F)c(F)c(F)c(F)c2OC2CC2)cc1F [Compound I-75, 2-cyclopropoxy-3,4,5,6-tetrafluoro-N-(3-fluoro-4-methoxyphenyl)benzenesulfonamide]
% Inhibition [1]: B (10-20%)
% D.O.P. [1]: B (< 85%)
